{
  "source": "paper PMC5248655",
  "about": "(ACS chemical neuroscience, 2015)",
  "key": {"[1]": {"system": "sandwich-cultured primary rat hepatocytes (SCHs)", "conditions": "induction of LRP1 and P-gp; cited from earlier work"}, "P-gp [2]": {"system": "P-gp", "experiment": "Western blot of P-gp expression in SCHs", "assay_type": "cell-based, rat", "conditions": "48 h treatment, vs control cells, n = 4"}, "LRP1 [3]": {"system": "LRP1", "experiment": "Western blot of LRP1 expression in SCHs", "assay_type": "cell-based, rat", "conditions": "48 h treatment; for increase in LRP1 expression: n = 4"}, "LRP1 [4]": {"system": "LRP1", "experiment": "Western blot of hepatic LRP1 expression in treated rats", "assay_type": "in vivo, rat", "conditions": "26 day treatment, n = 5"}, "P-gp [5]": {"system": "P-gp", "experiment": "Western blot of P-gp expression in RBE4 cells", "assay_type": "cell-based, rat", "conditions": "5 µM, 48 h, normalized, vs control, n = 4"}, "LRP1 [6]": {"system": "LRP1", "conditions": "26 day treatment, Western blot, n = 5"}, "Aβ40": {"system": "Aβ40", "conditions": "rat, in vivo"}, "P-gp [7]": {"system": "P-gp", "experiment": "Western blot of hepatic P-gp expression in treated rats", "assay_type": "in vivo, rat", "conditions": "26 day treatment, n = 5"}, "P-gp [8]": {"system": "P-gp", "conditions": "26 day treatment, Western blot, n = 5"}, "Sprague–Dawley male rats [9]": {"system": "Sprague–Dawley male rats", "experiment": "TCA precipitation assay of Aβ degradation in treated rats", "assay_type": "in vivo, rat", "conditions": "rats treated 26 days, data not shown"}, "Aβ42": {"system": "Aβ42", "conditions": "rat, in vivo"}, "LRP1 [10]": {"system": "LRP1", "experiment": "Western blot of LRP1 expression in RBE4 cells", "assay_type": "cell-based, rat", "conditions": "5 µM, 48 h, normalized, vs control, n = 4"}, "Sprague–Dawley male rats [11]": {"system": "Sprague–Dawley male rats", "conditions": "n = 5; for hepatic uptake (extravascular extraction, E) of ^125I-Aβ40: absolute value"}, "Sprague–Dawley male rats [12]": {"system": "Sprague–Dawley male rats", "experiment": "Brain efflux index", "conditions": "60 min after intracerebral microinjection"}, "C57BL/6 wild-type mice": {"system": "C57BL/6 wild-type mice", "conditions": "compared to control mice; cited from earlier work"}},
  "note": "Structures can show the parent of a compound that is named as a salt. Where two headings read alike, the source gives them in different places.",
  "data": [
    {"compound": "CO[C@H]1/C=C/O[C@@]2(C)Oc3c(C)c(O)c4c(O)c(c(/C=N/N5CCN(C)CC5)c(O)c4c3C2=O)NC(=O)/C(C)=C\\C=C\\[C@H](C)[C@H](O)[C@@H](C)[C@@H](O)[C@@H](C)[C@H](OC(C)=O)[C@@H]1C", "note": "[rifampicin]", "values": [
      {"measurement": "effect on biliary clearance of ^125I-Aβ (in words)", "setting": "[1]", "result": "significantly increased"}
    ]},
    {"compound": "COc1ccc2c3c1O[C@H]1C[C@@H](O)C=C[C@@]31CCN(C)C2", "note": "[galantamine, Galantamine hydrochloride]", "values": [
      {"measurement": "increase in P-gp expression", "setting": "P-gp [2]", "result": 1.3, "unit": "fold"},
      {"measurement": "increase in LRP1 expression", "setting": "LRP1 [3]; vs control cells", "result": 1.2, "unit": "fold"}
    ]},
    {"compound": "CCN(C)C(=O)Oc1cccc([C@H](C)N(C)C)c1", "note": "[rivastigmine, rivastigmine L-tartrate]", "values": [
      {"measurement": "increase in liver LRP1 expression", "setting": "LRP1 [4]; aged rats", "result": 88, "unit": "%"},
      {"measurement": "increase in liver LRP1 expression", "setting": "LRP1 [4]; young rats", "result": 41, "unit": "%"},
      {"measurement": "increase in P-gp expression", "setting": "P-gp [2]", "result": 1.3, "unit": "fold"},
      {"measurement": "increase in P-gp expression", "setting": "P-gp [5]", "result": "approximately 1.7 fold"},
      {"measurement": "increase in brain LRP1 protein expression", "setting": "LRP1 [6]; aged rats", "result": 56, "unit": "%"},
      {"measurement": "increase in brain LRP1 protein expression", "setting": "LRP1 [6]; young rats", "result": 42, "unit": "%"},
      {"measurement": "reduction of total brain Aβ40 level", "setting": "Aβ40", "result": "approximately 52%"},
      {"measurement": "total Aβ40 level in brain", "setting": "Aβ40", "result": "1713 ± 260", "unit": "pmol/g brain tissue"},
      {"measurement": "increase in liver P-gp expression", "setting": "P-gp [7]; aged rats", "result": 81, "unit": "%"},
      {"measurement": "increase in liver P-gp expression", "setting": "P-gp [7]; young rats", "result": 47, "unit": "%"},
      {"measurement": "increase in brain P-gp protein expression", "setting": "P-gp [8]; aged rats", "result": 20, "unit": "%"},
      {"measurement": "increase in brain P-gp protein expression", "setting": "P-gp [8]; young rats", "result": 36, "unit": "%"},
      {"measurement": "effect on Aβ degradation", "setting": "Sprague–Dawley male rats [9]", "result": "no effect"},
      {"measurement": "reduction of total brain Aβ42 level", "setting": "Aβ42", "result": "approximately 52%"},
      {"measurement": "reduction trend in brain Aβ42 levels (in words)", "setting": "Aβ42", "result": "not statistically significant"},
      {"measurement": "total Aβ42 level in brain", "setting": "Aβ42", "result": "466 ± 67", "unit": "pmol/g brain tissue"},
      {"measurement": "increase in LRP1 expression", "setting": "LRP1 [10]", "result": "approximately 1.7 fold"},
      {"measurement": "increase in LRP1 expression", "setting": "LRP1 [3]; vs control cells", "result": 1.7, "unit": "fold"},
      {"measurement": "hepatic uptake (extravascular extraction, E) of ^125I-Aβ40", "setting": "Sprague–Dawley male rats [11]; aged rats, 26 day treatment, mean ± SEM", "result": "64.0 ± 4.9", "unit": "%"},
      {"measurement": "increase in hepatic uptake of ^125I-Aβ40", "setting": "Sprague–Dawley male rats [11]; aged rats, 26 day treatment, vs vehicle-treated rats of the same age", "result": 119, "unit": "%"},
      {"measurement": "hepatic uptake (extravascular extraction, E) of ^125I-Aβ40", "setting": "Sprague–Dawley male rats [11]; young rats, 26 day treatment, mean ± SEM", "result": "64 ± 3.7", "unit": "%"}
    ]},
    {"compound": "CC12CC3CC(C)(C1)CC(N)(C3)C2", "note": "[memantine]", "values": [
      {"measurement": "effect on LRP1 expression (in words)", "setting": "LRP1 [3]", "result": "no effect"}
    ]},
    {"compound": "^125I-Aβ40", "values": [
      {"measurement": "^125I-Aβ40 BEI%", "setting": "Sprague–Dawley male rats [12]; vehicle-treated aged rats (24 months)", "result": 47, "unit": "%"},
      {"measurement": "^125I-Aβ40 BEI%", "setting": "Sprague–Dawley male rats [12]; vehicle-treated young rats (4 months)", "result": 59, "unit": "%"},
      {"measurement": "reduction of extravascular extraction (E) in aged compared to young rats", "setting": "Sprague–Dawley male rats [11]; aged (24 months) vs young (4 months) rats", "result": 44, "unit": "%"},
      {"measurement": "extravascular extraction or hepatic uptake of ^125I-Aβ40", "setting": "Sprague–Dawley male rats [11]; vehicle-treated young rats, single pass into the portal vein, 18 s, mean ± SEM", "result": "51.9 ± 2.4", "unit": "%"}
    ]},
    {"compound": "C/C=C(/C=O)[C@@H](CC=O)CC(=O)OCCc1ccc(O)cc1", "note": "[oleocanthal]", "values": [
      {"measurement": "increase in brain efflux of exogenously introduced Aβ40", "setting": "C57BL/6 wild-type mice", "result": 29, "unit": "%"}
    ]},
    {"compound": "Nc1c2c(nc3ccccc13)CCCC2", "note": "[tacrine, Tacrine hydrochloride]", "values": [
      {"measurement": "down-regulation of LRP1 expression", "setting": "LRP1 [3]; vs control cells", "result": 20, "unit": "%"}
    ]}
  ]
}
